Reference: ChEMBL document CHEMBL5724558, “Image-based profiling of drug vulnerabilities in CRC organoids” (2024)
Where “and” joins values, the source holds several entries; their conditions need not be identical. Equal values may be shown once.

Key:
Format in all cases: functional, Homo sapiens
Design in all cases: dose or concentration left out as unconfirmed
Colon cancer organoid [1] = test: (§1) Image-based profiling of donated chemical probes and chemogenomic kinase set in O06 CRC organoid. Image analysis is performed on the sum area metric, and the data were normalized to the DMSO control. After imaging the organoid viability is measured using the OneGloEX Luciferase Assay System. The normalized viability data and sum area are reported.
Colon cancer organoid [2] = test: as §1, with “O09” for “O06”
Colon cancer organoid [3] = test: as §1, with “O21” for “O06”

| Compound | Cell Viability (Colon cancer organoid [1]; Replication number 1) | Cell Viability (Colon cancer organoid [1]; Replication number 2) | Cell Viability (Colon cancer organoid [2]; Replication number 1) | Cell Viability (Colon cancer organoid [2]; Replication number 2) | Cell Viability (Colon cancer organoid [3]; Replication number 1) | Cell Viability (Colon cancer organoid [3]; Replication number 2) |
| --- | --- | --- | --- | --- | --- | --- |
| COc1cc2c(NC3CCN(C(C)C)CC3)nc(N3CCC(F)(F)CC3)nc2cc1OCCCN1CCCC1 | 71.9409% and 120.564% | 77.7589% and 98.4599% | 87.3897% and 128.439% | 117.725% and 126.861% | 89.3609% and 142.848% | 55.1916% and 97.1957% |
| Cc1nnc2c3ccccc3c(N[C@@H](C)[C@H](c3ccccc3)N(C)C)nn12 | 129.952% and 136.027% | 163.32% and 118.295% | 148.648% and 110.587% | 133.595% and 98.3529% | 132.945% and 134.618% | 79.559% and 84.8449% |
| Cn1cc(-c2ccc3occ(-c4cccc(-c5ccncc5)c4)c3n2)cn1 | 105.822% and 114.901% | 68.0406% and 107.425% | 82.6672% and 85.8718% | 87.0318% and 75.2306% | 96.3699% and 105.976% | 129.888% and 115.611% |
| Clc1cc2c(NC3CCCC3)nnc(-c3ccncc3)c2cc1Cl | 62.2011% and 99.302% | 123.043% and 92.9634% | 139.675% and 109.428% | 148.163% and 121.159% | 113.128% and 118.158% | 77.3442% and 110.621% |
| CC(=O)N1CCC(c2ccc(C(=O)NC3=NCCN3)cc2C(F)(F)F)CC1 [BI 0054] | 118.453% and 112.646% | 54.9204% and 58.7504% | 145.728% and 140.005% | 185.058% and 111.866% | 108.593% and 93.1436% | 106.585% and 84.6939% |
| O=C(NC[C@@H]1[C@H]2CN(C(=O)OCc3cc(C(F)(F)F)cc(C(F)(F)F)c3)C[C@@H]12)c1ccc2[nH]nnc2c1 [BI 2545] | 131.534% and 122.248% | 107.128% and 130.293% | 189.417% and 138.094% | 118.998% and 92.5885% | 93.6308% and 96.6365% | 84.4904% and 89.2857% |
| Cn1cncc1[C@@](O)(COc1ccc(C#N)cc1-c1ccc(OC(F)(F)F)cc1)c1ccc(C#N)cc1 [A-108] | 98.5597% and 105.855% | 74.5028% and 111.105% | 62.58% and 86.4879% | 152.883% and 128.222% | 75.0431% and 83.2471% | 104.838% and 112.755% |
| O=C1NC(c2ccccn2)Sc2ccccc21 (stereo unspecified) [BTZO-4] | 80.1051% and 90.1639% | 101.963% and 109.92% | 89.6903% and 76.6923% | 179.626% and 125.593% | 96.9189% and 94.3079% | 102.382% and 84.6939% |
| Cc1nccc(COC(=O)N2C[C@@H]3[C@@H](CNC(=O)c4ccc5[nH]nnc5c4)[C@@H]3C2)n1 [BI 3017] | 85.9577% and 77.5176% | 101.815% and 101.392% | 118.304% and 89.116% | 133.367% and 124.133% | 96.5552% and 87.3221% | 97.9165% and 92.8571% |
| C[C@@H]1CCNC(=O)c2cc3ccc(C(=O)Nc4nc5ccccc5n4CCCN(C)C)cc3n21 | 118.285% and 99.4853% | 110.228% and 88.2262% | 82.052% and 59.5917% | 80.614% and 53.9902% | 69.4409% and 79.1638% | 71.3371% and 86.362% |
| Cc1ccc2nc(CNCCCOc3ccccc3)cc(O)c2c1 [UCSF924] | 116.607% and 123.644% | 89.7333% and 84.3345% | 89.1468% and 105.602% | 80.3683% and 95.5591% | 109.248% and 108.585% | 100.134% and 96.363% |
